Experimental findings from patent US9168247B2, “Beta carboline derivatives useful in the treatment of proliferative disorders” (FACULTES UNIVERSITAIRES NOTRE DAME DE LA PAIX, priority 2010, dated 2015) are described below.

Assay [1] relates to U373 cells. The assay can be described thus: Cellular imaging (videomicroscopy) of cultured U373 cells: antiproliferative class and global growth ratio. Also on record: key to Anti proliferative class / anti-proliferative class-GGR: class I: actually cytostatic for 3 days (<10% of cell death at the 3rd day); class II: cyctostatic but becomes cytotoxic with <10% cell death on the 2nd day, and >20% of cell death on the 3rd day; class III: cytostatic but rapidly becomes cytotoxic with <10% cell death on the 1st day, >20% of cell death on the 2nd day and >50% of cell death on the 3rd day; class IV: cytotoxic (>50% of cell death on the first day). The following applies: for global growth ratio (GGR): GG treated cells/GG control cells, 72 h after drug addition, drug at its IC50 (MTT-test determined); for Anti proliferative class: cellular imaging of cultured U373 cells over three consecutive days. In kind it is cell-based, human. An excerpt:
The effects of the di- and tri-substituted beta-carboline derivatives as described herein can also be determined on cell proliferation, migration and morphology by means of a cellular imaging approach (Debeir et al., Cytometry 60:29-40, 2004; Debeir et al., IEEE Trans Med Imaging 24:697-711, 2005) either in, e.g., the human U373-MG glioma cell line, which is apoptosis-resistant but autophagy-sensitive (Lefranc F et al., Neurosurgery 2008) or in, e.g., the human A549 non-small-cell-lung cancer cell line, which is apoptosis-resistant and autophagy-resistant (Mijatovic T et al., Neoplasia 2006, May; 8(5):402-12).
[…] The experiments are conducted in quadruplicates.
The behaviour of the cells, in terms of morphology, growth and death are thus investigated. The effect on the overall growth is measured by counting the number of cells on the first (0 h) and the last image (72 h) of each film. The global growth ratio (GGR) is then deduced by dividing the number of cells on the last image by the number of cells on the first image. The ratio GGRtreated cells/GGRcontrol cells is further calculated thereby providing a value that describes the effect of compounds of the present invention on the overall cell growth.
The methodology is fully described and validated in Debeir et al., 2008, Exp Cell Res 314:2985-2998 and Mathieu et al., 2009, J Cell Mol Med, Feb. 20, 2009.
In general terms: Tetrazolium dyes change colour on reduction, which living cells bring about.

Assay [2] concerns human cancer cell lines (U373, T98G, Hs683, OE21, OE33). The assay can be described thus: MTT test, mean over the cancer cell lines. In kind it is cell-based. The following applies: Homo sapiens. On the procedure:
(§1) MTT tests were performed in order to rapidly, i.e., within 5 days, measure the effect of the present compounds on the overall cell growth. The test measured the number of metabolically active living cells that were able to transform the yellow product 3-(4,5-dimethylthiazol-2-yl)-2,5-diphenyl tetrazolium bromide (herein referred as MTT) into the blue product formazan dye by mitochondrial reduction. The amount of formazan obtained at the end of the experiment, measured by means of a spectrophotometer, is directly proportional to the number of living cells. Optical density determination thus enabled a quantitative measurement of the effect of the investigated compounds as compared to the control condition (untreated cells) and/or to other reference compounds.
(§2) Five human cancer cell lines set forth in Table 3 were used in the MTT tests. These cancer cell lines cover two histological cancer types including glioma (Hs683, T98G, U373), and oesophageal (OE21, OE33) cancers. The U373 cell line is apoptosis-resistant but autophagy-sensitive.
(§3) To perform the assay, cells were allowed to grow in 96-well micro-wells with a flat bottom with an amount of 100 μl of cell suspension per well with 5,000 to 8,000 cells/well depending on the cell type used. Each cell line was seeded in its appropriate culture medium.
(§4) The detailed experimental procedure was as follows: after a 24-hour period of incubation at 37° C., the culture medium was replaced by 100 μl of fresh medium in which the tested compound was previously dissolved, at the following molar concentrations: 1×10^−8 M, 5×10^−8 M, 1×10^−7 M, 5×10^−7 M, 1×10^−6 M, 5×10^−6 M, 1×10^−5 M, 5×10^−5 M and 1×10^−4 M. Each experiment was performed in sestuplicate (6 times).
(§5) After 72 hours of incubation at 37° C. with (experimental conditions) or without (control condition) the compound to be tested, the medium was replaced by 100 μl MTT dissolved in RPMI (1640 without phenol red) at a concentration of 0.5 or 1 mg/ml. The micro-wells were subsequently incubated during 3 hours and a half at 37° C. and centrifuged at 1300 rpm during 10 minutes. MTT was removed and formazan crystals formed were dissolved in […]. The micro-wells were shaken for 5 minutes and read on a spectrophotometer at wavelengths of 570 nm (maximal formazan absorbance).
(§6) For each experimental condition, the mean optical density was calculated, allowing the determination of the percentage of remaining living cells in comparison to the control.
(§7) The origin of all the cell lines we used, along with their biological characteristics, and the validation procedures of the MTT colorimetric assay as employed here are fully detailed in Van Quaquebeke et al., 2005, J Med Chem 48:849-856; Ingrassia et al., 2009, J Med Chem 52:1100-1114; Mathieu et al., 2009, J Cell Mol Med, Feb. 20, 2009.

Assay [3] relates to OE33 oesophageal cancer cells. The experiment in a line: MTT test, overall cell growth, OE33. In kind it is cell-based, human. The following applies: Homo sapiens, OE33, 72 hours of incubation. On the procedure: as §1, §2, §3, §4, §5, §6, §7
In assay [4] the test system is OE21 oesophageal cancer cells. The experiment in a line: MTT test, overall cell growth, OE21. In kind it is cell-based, human. The following applies: Homo sapiens, OE21, 72 hours of incubation. On the procedure: as §1, §2, §3, §4, §5, §6, §7
The subject of assay [5] is Hs683 glioma cells. The assay can be described thus: MTT test, overall cell growth, Hs683. In kind it is cell-based, human. The following applies: Homo sapiens, Hs 683, 72 hours of incubation. How it is done:
as §1, §2, §3, §4, §5, §6, §7

The test system of assay [6] is U373 glioma cells. The experiment in a line: MTT test, overall cell growth, U373. In kind it is cell-based, human. The following applies: Homo sapiens, U373 MG, 72 hours of incubation. On the procedure:
as §1, §2, §3, §4, §5, §6, §7

Assay [7] relates to T98G glioma cells. The experiment in a line: MTT test, overall cell growth, T98G. In kind it is cell-based, human. The following applies: Homo sapiens, T98G, 72 hours of incubation. On the procedure: as §1, §2, §3, §4, §5, §6, §7
Setting [8] is: mean over the cancer cell lines, MTT test, read-out: IC50 Mean ± SEM.
The mark [9] stands for this setting: Glioma cell, MTT assay, submicromolar range, e.g. as low as, read-out: mean anti-proliferative effect on the glioma cell lines.

Where two headings read alike, the source gives them in different places.

On to `Cc1c2c(cc[n+]1Cc1ccc(F)cc1)c1ccc(OCc3ccccc3)cc1n2Cc1ccccc1.[Br-]` [CV17, 1-methyl-2-(4-fluorobenzyl)-7-benzyloxy-9-benzyl-β-carbolin-2-ium bromide], for which the “global growth ratio (GGR)” value in assay [1] is on record as 0.4. Further, in assay [1], the Anti proliferative class result was “I (class I: actually cytostatic for 3 days (<10% of cell death at the 3rd day))”. Also, the IC50 in assay [2] (setting [8]) came to 1.2 ± 0.4 µM; in assay [3] it was 2400 ± 300 nM; in assay [4], 610 ± 40 nM; in assay [5] it was 1600 ± 300 nM; in assay [6], 590 ± 60 nM; in assay [7] it was 560 ± 50 nM.

`Cc1c2c(cc[n+]1Cc1ccccc1F)c1ccc(OCc3ccccc3)cc1n2Cc1ccccc1.[Br-]` [CV18, 1-methyl-2-(2-fluorobenzyl)-7-benzyloxy-9-benzyl-β-carbolin-2-ium bromide]: the “global growth ratio (GGR)” value in assay [1] is given as 0.3. In assay [1], the Anti proliferative class result was “I (class I: actually cytostatic for 3 days (<10% of cell death at the 3rd day))”. Moreover, the IC50 in assay [2] (setting [9]) was 0.34 to 0.8 µM; in assay [2] (setting [8]), 0.48 ± 0.06 µM; in assay [3] it was 700 ± 80 nM; in assay [4] it was 380 ± 20 nM; in assay [5] it was 440 ± 40 nM; in assay [6] it was 500 ± 200 nM. In assay [7], this molecule yielded an IC50 of 370 ± 10 nM.

Turning to `Cc1c2c(cc[n+]1Cc1ccccc1F)c1ccc(OCc3cccc(F)c3)cc1n2Cc1cccc(F)c1.[Br-]` [CV19, 1-methyl-2-(2-fluorobenzyl)-7-(3-fluorobenzyl)oxy-9-(3-fluorobenzyl)-β-carbolin-2-ium bromide], in assay [1], the “global growth ratio (GGR)” value is on record as 0.2. For the same molecule, the Anti proliferative class entry in assay [1] is “I (class I: actually cytostatic for 3 days (<10% of cell death at the 3rd day))”. In addition, the IC50 in assay [2] (setting [8]) stood at 1.6 ± 0.4 µM; in assay [3] it was 3000 ± 200 nM; in assay [4], 1400 ± 300 nM; in assay [5] it was 2200 ± 200 nM; in assay [6], 600 ± 200 nM; in assay [7] it was 700 ± 200 nM.

As to `Cc1c2c(cc[n+]1Cc1ccc(F)cc1)c1ccc(OCc3cccc(F)c3)cc1n2Cc1cccc(F)c1.[Br-]` [CV22, 1-methyl-2-(4-fluorobenzyl)-7-(3-fluorobenzyl)oxy-9-(3-fluorobenzyl)-β-carbolin-2-ium bromide], the “global growth ratio (GGR)” value in assay [1] is 0.5. Further, the Anti proliferative class entry in assay [1] is given as “I (class I: actually cytostatic for 3 days (<10% of cell death at the 3rd day))”. In addition, the IC50 in assay [2] (setting [8]) came to 2.7 ± 0.6 µM; in assay [3], 3400 ± 100 nM; in assay [4] it was 2900 ± 100 nM; in assay [5], 4500 ± 400 nM; in assay [6], 900 ± 100 nM; in assay [7], 1900 ± 300 nM.

Turning to `Cc1c2c(cc[n+]1Cc1ccccc1)c1ccc(OCc3ccc(F)cc3)cc1n2Cc1ccc(F)cc1.[Br-]` [CV23, 1-methyl-2-benzyl-7-(4-fluorobenzyl)oxy-9-(4-fluorobenzyl)-β-carbolin-2-ium bromide], the “global growth ratio (GGR)” value in assay [1] is 0.3. Further, in assay [1], the Anti proliferative class entry was “I (class I: actually cytostatic for 3 days (<10% of cell death at the 3rd day))”. Besides, the IC50 in assay [2] (setting [9]) is 0.34 to 0.8 µM; in assay [2] (setting [8]) it was 0.8 ± 0.2 µM; in assay [3], 1400 ± 100 nM; in assay [4], 500 ± 90 nM; in assay [5], 900 ± 100 nM; in assay [6], 430 ± 70 nM. This molecule also gave an IC50 in assay [7] of 400 ± 40 nM.

Take `Cc1c2c(cc[n+]1Cc1ccccc1)c1ccc(OCC3CCCCC3)cc1n2CC1CCCCC1.[Br-]` [CV24, 1-methyl-2-benzyl-7-cyclohexylmethyloxy-9-cyclohexylmethyl-β-carbolin-2-ium bromide]: the “global growth ratio (GGR)” value in assay [1] is 0.3. In assay [1], the Anti proliferative class entry is on record as “I (class I: actually cytostatic for 3 days (<10% of cell death at the 3rd day))”. The IC50 in assay [2] (setting [9]) was 0.34 to 0.8 µM; in assay [2] (Table 4, mean over cell lines, read-out: IC50 μM growth inhibition (MTT test)), 0.34 µM; in assay [2] (setting [8]), 0.34 ± 0.05 µM; in assay [3] it was 370 ± 10 nM; in assay [4] it was 420 ± 8 nM; in assay [5] it was 380 ± 9 nM. The IC50 in assay [6] was determined as 370 ± 20 nM; in assay [7], 160 ± 30 nM.

Turning to `Cc1c2c(cc[n+]1Cc1ccccc1F)c1ccc(OCC3CCCCC3)cc1n2CC1CCCCC1.[Br-]` [CV26, 1-methyl-2-(2-fluorobenzyl)-7-cyclohexylmethyloxy-9-cyclohexylmethyl-β-carbolin-2-ium bromide], the “global growth ratio (GGR)” value in assay [1] was determined as 0.2. Moreover, in assay [1], the Anti proliferative class result is recorded as “I (class I: actually cytostatic for 3 days (<10% of cell death at the 3rd day))”. Besides, the IC50 in assay [2] (setting [9]) was 0.34 to 0.8 µM; in assay [2] (setting [8]) it was 0.5 ± 0.2 µM; in assay [3], 350 ± 20 nM; in assay [4], 350 ± 10 nM; in assay [5], 250 ± 20 nM; in assay [6], 1420 ± 80 nM. Besides, the IC50 in assay [7] worked out at 70 ± 8 nM.

As for `Cc1nccc2c3ccc(O)cc3n(Cc3ccccc3)c12` [CV27, 1-methyl-7-hydroxy-9-benzyl-β-carboline], the “global growth ratio (GGR)” value in assay [1] is reported as 0.2. The Anti proliferative class result in assay [1] is on record as “II”. In addition, the IC50 is 62 ± 11 µM in assay [2] (setting [8]); 35000 ± 2000 nM in assay [3]; 35000 ± 2000 nM in assay [4]; 79000 ± 4000 nM in assay [5]; 80000 ± 2000 nM in assay [6]; 81000 ± 11000 nM in assay [7].

As for `Cc1c2c(cc[n+]1Cc1ccc(F)cc1)c1ccc(OCc3ccc(F)cc3)cc1n2Cc1ccc(F)cc1.[Br-]` [CV29, 1-methyl-2-(4-fluorobenzyl)-7-(4-fluorobenzyl)oxy-9-(4-fluorobenzyl)-β-carbolin-2-ium bromide], the “global growth ratio (GGR)” value in assay [1] worked out at 0.1. Besides, the Anti proliferative class entry in assay [1] is recorded as “IV (class IV: cytotoxic (>50% of cell death on the first day))”. Also, the IC50 in assay [2] (setting [8]) worked out at 7 ± 3 µM; in assay [3], 3100 ± 300 nM; in assay [4] it was 3700 ± 200 nM; in assay [5], 13000 ± 1000 nM; in assay [6], 2900 ± 100 nM; in assay [7], 14000 ± 2000 nM.
